Earlier results, collected in patent publication US20020103240A1, “Process for resolution of 2-amino-6-propylamino-4,5,6,7-tetrahydrobenzthiazole and compounds therefor” (priority 2000, published 2002).

Conditions: (S) isomer compared with (R) enantiomer; no test described

## CCCN[C@H]1CCc2nc(N)sc2C1 [pramipexole, (S)-2-amino-6-propylamino-4,5,6,7-tetrahydrobenzothiazole]
  dopaminergic activity of the (S) isomer relative to the (R) enantiomer: twice as high
